One experiment concerns the target T1, PARP7 (Homo sapiens, UniProt Q7Z3E1).
T1 sequence (Q7Z3E1 1-657): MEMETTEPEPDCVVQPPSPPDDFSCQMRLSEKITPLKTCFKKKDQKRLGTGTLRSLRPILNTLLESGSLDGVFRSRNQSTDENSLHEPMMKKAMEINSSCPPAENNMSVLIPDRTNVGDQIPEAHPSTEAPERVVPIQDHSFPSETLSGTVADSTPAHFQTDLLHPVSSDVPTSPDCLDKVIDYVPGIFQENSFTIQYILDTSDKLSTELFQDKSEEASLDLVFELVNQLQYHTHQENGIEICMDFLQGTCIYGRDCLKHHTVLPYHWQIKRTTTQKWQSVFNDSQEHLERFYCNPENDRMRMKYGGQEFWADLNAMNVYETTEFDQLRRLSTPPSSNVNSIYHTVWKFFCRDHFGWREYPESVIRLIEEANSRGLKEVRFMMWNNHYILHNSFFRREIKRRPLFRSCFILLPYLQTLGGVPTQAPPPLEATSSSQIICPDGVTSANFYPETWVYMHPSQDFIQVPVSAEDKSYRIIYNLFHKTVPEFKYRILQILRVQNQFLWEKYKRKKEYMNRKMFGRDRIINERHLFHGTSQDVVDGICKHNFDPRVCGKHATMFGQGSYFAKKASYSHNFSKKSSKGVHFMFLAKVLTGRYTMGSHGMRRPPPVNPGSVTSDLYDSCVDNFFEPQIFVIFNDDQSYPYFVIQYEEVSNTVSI
Nature of the experiment: Probe Displacement Assay for PARP7 (MSD electrochemiluminescent, biotinylated probe RBNO11147). The following applies: displacement of biotinylated probe RBNO11147 from PARP7 NAD+-binding site; read-out: MSD ProbeDisp PARP7 IC50.

Experiment [1] deals with endogenous cellular STAT1 (phosphorylated at Tyr701) in NCI-H1373 cells. Briefly: Phospho-STAT1 (Tyr701) LANCE Ultra TR-FRET Detection Assay. The format is cell-based. The following applies: Homo sapiens, NCI-H1373, 48 h, phospho-STAT1 (Tyr701) induction, read-out: NH1373 pSTAT1 EC50.

Experimental for PARP7: Displacement of a biotinylated probe (RBNO11147; Wigle et al., Cell Chemical Biology, 2020, pp. 877-887) from the PARP7 NAD+-binding site was measured in vitro using a Mesoscale Discovery electrochemiluminescent assay. […] Next, 10 ml of 10 nM PARP7 protein incubated for 1 hour at room temperature with a dose response curve of each test compound in a Greiner LDV polypropylene plate (#781201) is added to the MSD plate containing the immobilized probe. The interaction is allowed to reach equilibrium for 1.5 hours, and then 10 ml of SULFO-TAG labeled anti-GST antibody (Cat #R32AA-1) is added to each well and allowed to incubate for an additional 1.5 hours at room temperature. Finally, 10 ml of MSD read buffer T (4×, Cat. #R92C-1) is added to each well using a Bravo liquid handler to prevent air bubbles in the wells, and the plates are subsequently read in an MSD instrument. Light intensity is then measured to quantify the amount of PARP7 bound to the immobilized probe on the plate.

By IC50 is commonly meant the concentration at which inhibition is half-maximal. In general, EC50 refers to the concentration giving half of the maximal effect. As to `C[C@@H](CCCn1cnc2cc(-c3ccc(C(F)(F)F)cn3)c(F)cc2c1=O)Nc1cn[nH]c(=O)c1C(F)(F)F` [Example 58, (S)-6-fluoro-3-(4-((6-oxo-5-(trifluoromethyl)-1,6-dihydropyridazin-4-yl)amino)pentyl)-7-(5-(trifluoromethyl)pyridin-2-yl)quinazolin-4(3H)-one], the IC50 at PARP7 came out at 0.484 nM. Also, the EC50 in experiment [1] was 124 nM.

With `C[C@@H](CCCn1ccc2c(F)c(-c3ncc(C(F)(F)F)cn3)ccc2c1=O)Nc1cn[nH]c(=O)c1C(F)(F)F` [Example 6, 5-fluoro-2-[(4S)-4-[[6-oxo-5-(trifluoromethyl)-1H-pyridazin-4-yl]amino]pentyl]-6-[5-(trifluoromethyl)pyrimidin-2-yl]isoquinolin-1-one], the IC50 at PARP7 was determined as 0.7 nM. Moreover, in experiment [1], the EC50 worked out at 434 nM.

Regarding `O=c1[nH]ncc(N[C@H](CCCn2ccc3cc(-c4ncc(Cl)cn4)c(F)cc3c2=O)COC(F)F)c1C(F)(F)F` [Example 381, (R)-6-(5-chloropyrimidin-2-yl)-2-(5-(difluoromethoxy)-4-((6-oxo-5-(trifluoromethyl)-1,6-dihydropyridazin-4-yl)amino)pentyl)-7-fluoroisoquinolin-1(2H)-one], at PARP7, the IC50 was determined as 0.28 nM. For the same compound, the EC50 in experiment [1] came to 0.885 nM.

For the compound `C[C@@H](CCCn1ccc2cc(-c3nc4ccccc4o3)c(F)cc2c1=O)Nc1cn[nH]c(=O)c1C(F)(F)F` [Example 307, (S)-6-(benzo[d]oxazol-2-yl)-7-fluoro-2-(4-((6-oxo-5-(trifluoromethyl)-1,6-dihydropyridazin-4-yl)amino)pentyl)isoquinolin-1(2H)-one], the IC50 at PARP7 turned out to be 0.352 nM. Moreover, in experiment [1], the EC50 came to 11.2 nM.

For `C[C@@H](CCCn1ccc2cc(-c3ccccn3)c(F)cc2c1=O)Nc1cn[nH]c(=O)c1C(F)(F)F` [Example 31, 7-fluoro-2-[(4S)-4-[[6-oxo-5-(trifluoromethyl)-1H-pyridazin-4-yl]amino]pentyl]-6-(2-pyridyl)isoquinolin-1-one], the IC50 on PARP7 was found to be 0.2 nM. Further, in experiment [1], the EC50 came out at 2180 nM.

Consider `C[C@@H](CCCn1ccc2cc(-c3ccc(OC(F)F)cn3)c(F)cc2c1=O)Nc1cn[nH]c(=O)c1C(F)(F)F` [Example 43, 6-[5-(difluoromethoxy)-2-pyridyl]-7-fluoro-2-[(4S)-4-[[6-oxo-5-(trifluoromethyl)-1H-pyridazin-4-yl]amino]pentyl]isoquinolin-1-one], for which, at PARP7, the IC50 was found to be 0.76 nM. For the same compound, the concentration giving a half-maximal response (EC50) in experiment [1] was 311 nM.

Regarding `C[C@@H](CCCn1cnc2cc(-c3ncc(C(F)(F)F)c(N4C[C@@H](O)[C@@H]4C)n3)c(F)cc2c1=O)Nc1cn[nH]c(=O)c1C(F)(F)F` [Example 314, 6-fluoro-7-(4-((2S,3R)-3-hydroxy-2-methylazetidin-1-yl)-5-(trifluoromethyl)pyrimidin-2-yl)-3-((S)-4-((6-oxo-5-(trifluoromethyl)-1,6-dihydropyridazin-4-yl)amino)pentyl)quinazolin-4(3H)-one], the IC50 at PARP7 was 0.185 nM. Further, in experiment [1], the EC50 was 6.08 nM.

On to `C[C@@H](CCCn1cnc2cc(-c3ccc(F)cn3)c(F)cc2c1=O)Nc1cn[nH]c(=O)c1C(F)(F)F` [Example 59, (S)-6-fluoro-7-(5-fluoropyridin-2-yl)-3-(4-((6-oxo-5-(trifluoromethyl)-1,6-dihydropyridazin-4-yl)amino)pentyl)quinazolin-4(3H)-one], for which the IC50 on PARP7 is 0.82 nM. Also, the 50% effective concentration (EC50) in experiment [1] was found to be 386 nM.

Consider `C[C@@H](CCCn1ccc2cc(-c3ccc(C(F)(F)F)cn3)cc(F)c2c1=O)Nc1cn[nH]c(=O)c1C(F)(F)F` [Example 11, 8-fluoro-2-[(4S)-4-[[6-oxo-5-(trifluoromethyl)-1H-pyridazin-4-yl]amino]pentyl]-6-[5-(trifluoromethyl)-2-pyridyl]isoquinolin-1-one], for which, on PARP7, the IC50 was 0.2 nM. Also, the EC50 in experiment [1] stood at 32.4 nM.

Source of the values: patent US12459922B2 (Gilead Sciences, Inc., priority 2022, dated 2025).
